From PubChem BioAssay (NCI)
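Cultured in 96-well plates, cells were exposed to test compound for 48 hours across five concentrations. GI50 = concentration required for 50% inhibition of growth. TGI marks complete inhibition of growth.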 Where a SMILES comes first, the peptide text is derived from it.

Tests used:
Assay in all cases: DTP human tumour cell line panel, 48 h
ACHN renal = tested on: ACHN renal
CCRF-CEM leukemia = tested on: CCRF-CEM leukemia
COLO 205 colon = tested on: COLO 205 colon
DU-145 prostate = tested on: DU-145 prostate
NCI-H226 lung = tested on: NCI-H226 lung
OVCAR-4 ovarian = tested on: OVCAR-4 ovarian
SF-539 CNS = tested on: SF-539 CNS
SK-OV-3 ovarian = tested on: SK-OV-3 ovarian
UACC-257 melanoma = tested on: UACC-257 melanoma
PC-3 prostate = tested on: PC-3 prostate

CCCCNC(=O)Oc1ccc(/C(=C(/C)Cc2ccc(OC)cc2)c2ccc(OCCN3CCCC3)cc2)cc1
GI50 (ACHN renal): 1.79 µM
TGI (ACHN renal): 3.32 µM
GI50 (CCRF-CEM leukemia): 2.57 µM
TGI (CCRF-CEM leukemia): 7.41 µM
GI50 (COLO 205 colon): 1.83 µM
TGI (COLO 205 colon): 3.57 µM
GI50 (DU-145 prostate): 2.29 µM
TGI (DU-145 prostate): 5.44 µM
GI50 (NCI-H226 lung): 3.03 µM
TGI (NCI-H226 lung): 11.4 µM
GI50 (OVCAR-4 ovarian): 1.83 µM
TGI (OVCAR-4 ovarian): 4.26 µM
GI50 (SF-539 CNS): 1.75 µM
TGI (SF-539 CNS): 3.32 µM
GI50 (SK-OV-3 ovarian): 6.14 µM
TGI (SK-OV-3 ovarian): 20.4 µM
GI50 (UACC-257 melanoma): 1.88 µM
TGI (UACC-257 melanoma): 3.44 µM

Cc1cc(N2CCCC2)nc(NCc2cc(Nc3ccnc4cc(Cl)ccc34)ccc2F)n1
GI50 (ACHN renal): 1.53 µM
TGI (ACHN renal): 3.06 µM
GI50 (COLO 205 colon): 0.278 µM
TGI (COLO 205 colon): 1.43 µM
GI50 (DU-145 prostate): 1.3 µM
TGI (DU-145 prostate): 2.69 µM
GI50 (PC-3 prostate): 1.19 µM
TGI (PC-3 prostate): 2.58 µM
GI50 (SF-539 CNS): 1.55 µM
TGI (SF-539 CNS): 3.11 µM
GI50 (SK-OV-3 ovarian): 2.04 µM
TGI (SK-OV-3 ovarian): 3.89 µM
GI50 (UACC-257 melanoma): 1.31 µM
TGI (UACC-257 melanoma): 2.66 µM

CN(C)CC(C(=O)Cc1ccccc1)c1ccccc1 (stereo not given)
GI50 (ACHN renal): 1.97 µM
TGI (ACHN renal): 3.53 µM
GI50 (COLO 205 colon): 2.3 µM
TGI (COLO 205 colon): 5.04 µM
GI50 (DU-145 prostate): 1.73 µM
TGI (DU-145 prostate): 4.72 µM
GI50 (NCI-H226 lung): 13.8 µM
TGI (NCI-H226 lung): 38.3 µM
GI50 (OVCAR-4 ovarian): 2.35 µM
TGI (OVCAR-4 ovarian): 5.87 µM
GI50 (PC-3 prostate): 7.53 µM
TGI (PC-3 prostate): 22.4 µM
GI50 (SF-539 CNS): 1.87 µM
TGI (SF-539 CNS): 3.99 µM
GI50 (SK-OV-3 ovarian): 18.4 µM
TGI (SK-OV-3 ovarian): 36.2 µM
GI50 (UACC-257 melanoma): 1.79 µM
TGI (UACC-257 melanoma): 4.25 µM

CCC(C)C1NC(=O)C2CCCN2C(=O)CNC(=O)C(C)NC(=O)C(Cc2ccccc2)NC(=O)C(C(C)C)NC1=O (stereo not given) (cyclo(GPIVFA); configuration not given here)
TGI (ACHN renal): > 100 µM
TGI (COLO 205 colon): > 100 µM
TGI (NCI-H226 lung): > 100 µM
TGI (OVCAR-4 ovarian): > 100 µM
TGI (SF-539 CNS): > 100 µM
TGI (SK-OV-3 ovarian): > 100 µM
TGI (UACC-257 melanoma): > 100 µM

CCCCc1n(Cc2ccc3ccccc3c2)cc[n+]1Cc1ccc2ccccc2c1
GI50 (ACHN renal): 1.97 µM
TGI (ACHN renal): 4.19 µM
GI50 (CCRF-CEM leukemia): 1.52 µM
TGI (CCRF-CEM leukemia): 4.03 µM
GI50 (DU-145 prostate): 1.41 µM
TGI (DU-145 prostate): 2.83 µM
GI50 (PC-3 prostate): 1.11 µM
TGI (PC-3 prostate): 2.53 µM
GI50 (SF-539 CNS): 1.4 µM
TGI (SF-539 CNS): 2.74 µM
GI50 (SK-OV-3 ovarian): 1.38 µM
TGI (SK-OV-3 ovarian): 2.75 µM
GI50 (UACC-257 melanoma): 1.04 µM
TGI (UACC-257 melanoma): 2.32 µM

CN1CCN(c2nc(NCCCNc3ccnc4cc(Cl)ccc34)c3ccccc3n2)CC1
GI50 (ACHN renal): 3.92 µM
TGI (ACHN renal): 13.6 µM
GI50 (COLO 205 colon): 1.86 µM
TGI (COLO 205 colon): 4.51 µM
GI50 (DU-145 prostate): 6.11 µM
TGI (DU-145 prostate): 18.4 µM
GI50 (NCI-H226 lung): 18.9 µM
TGI (NCI-H226 lung): 41.4 µM
GI50 (OVCAR-4 ovarian): 2.69 µM
TGI (OVCAR-4 ovarian): 12.5 µM
GI50 (PC-3 prostate): 6.14 µM
TGI (PC-3 prostate): 20.7 µM
GI50 (SF-539 CNS): 1.74 µM
TGI (SF-539 CNS): 3.5 µM
GI50 (SK-OV-3 ovarian): 6.46 µM
TGI (SK-OV-3 ovarian): 22.5 µM
GI50 (UACC-257 melanoma): 2.02 µM
TGI (UACC-257 melanoma): 3.83 µM

COc1ccc2c(c1)[n+]([O-])c(-c1ccc(C)cc1)c(N)[n+]2[O-]
TGI (ACHN renal): > 100 µM
TGI (COLO 205 colon): 36.4 µM
TGI (NCI-H226 lung): > 100 µM
TGI (OVCAR-4 ovarian): > 100 µM
TGI (SF-539 CNS): > 100 µM
TGI (SK-OV-3 ovarian): > 100 µM
TGI (UACC-257 melanoma): 62 µM

O=[N+]([O-])c1ccccc1C=NC12CC3CC(CC(C3)C1)C2
TGI (ACHN renal): > 100 µM
TGI (CCRF-CEM leukemia): > 100 µM
TGI (COLO 205 colon): > 100 µM
TGI (NCI-H226 lung): > 100 µM
TGI (OVCAR-4 ovarian): > 100 µM
TGI (SF-539 CNS): > 100 µM
TGI (SK-OV-3 ovarian): > 100 µM
TGI (UACC-257 melanoma): > 100 µM

COc1ccc(-c2cc(-c3cc(Cl)cc(Br)c3O)[nH]c(=O)n2)cc1
TGI (ACHN renal): 27.7 µM
TGI (CCRF-CEM leukemia): 70.7 µM
TGI (COLO 205 colon): 29 µM
TGI (NCI-H226 lung): 33.4 µM
TGI (OVCAR-4 ovarian): 26.5 µM
TGI (SF-539 CNS): 28.8 µM
TGI (SK-OV-3 ovarian): 38.8 µM
TGI (UACC-257 melanoma): 42.2 µM

C=C(CC(=O)O)C(=O)O (tested in a mixture with another compound)
GI50 (ACHN renal): > 50 µg/mL
TGI (ACHN renal): > 50 µg/mL
GI50 (COLO 205 colon): > 50 µg/mL
TGI (COLO 205 colon): > 50 µg/mL
GI50 (DU-145 prostate): > 50 µg/mL
TGI (DU-145 prostate): > 50 µg/mL
GI50 (NCI-H226 lung): > 50 µg/mL
TGI (NCI-H226 lung): > 50 µg/mL
GI50 (PC-3 prostate): > 50 µg/mL
TGI (PC-3 prostate): > 50 µg/mL
GI50 (SF-539 CNS): > 50 µg/mL
TGI (SF-539 CNS): > 50 µg/mL
GI50 (SK-OV-3 ovarian): > 50 µg/mL
TGI (SK-OV-3 ovarian): > 50 µg/mL
GI50 (UACC-257 melanoma): > 50 µg/mL
TGI (UACC-257 melanoma): > 50 µg/mL

COc1cc(-c2cc(/C=C/C(=O)c3ccc(Cl)c(Cl)c3)[nH]n2)cc(OC)c1OC
GI50 (ACHN renal): 21.4 µM
TGI (ACHN renal): > 100 µM
GI50 (CCRF-CEM leukemia): 2.15 µM
TGI (CCRF-CEM leukemia): 23.5 µM
GI50 (COLO 205 colon): 1.26 µM
TGI (COLO 205 colon): 15.8 µM
GI50 (NCI-H226 lung): 18.6 µM
TGI (NCI-H226 lung): > 100 µM
GI50 (OVCAR-4 ovarian): 10.8 µM
TGI (OVCAR-4 ovarian): 50.9 µM
GI50 (PC-3 prostate): 5.96 µM
TGI (PC-3 prostate): > 100 µM
GI50 (SF-539 CNS): 4.31 µM
TGI (SF-539 CNS): 18.7 µM
GI50 (SK-OV-3 ovarian): 4.19 µM
TGI (SK-OV-3 ovarian): 18.8 µM
GI50 (UACC-257 melanoma): 16.3 µM
TGI (UACC-257 melanoma): 74 µM

CC(=O)[CH-]C(=O)c1ccccc1.CC(=O)[CH-]C(=O)c1ccccc1.Cl.[O-]c1ccccn1.[O-]c1ccccn1.[Ti+4]
GI50 (ACHN renal): > 100 µM
TGI (ACHN renal): > 100 µM
GI50 (NCI-H226 lung): > 100 µM
TGI (NCI-H226 lung): > 100 µM
GI50 (OVCAR-4 ovarian): > 100 µM
TGI (OVCAR-4 ovarian): > 100 µM
GI50 (SF-539 CNS): > 100 µM
TGI (SF-539 CNS): > 100 µM
GI50 (SK-OV-3 ovarian): > 100 µM
TGI (SK-OV-3 ovarian): > 100 µM
GI50 (UACC-257 melanoma): > 100 µM
TGI (UACC-257 melanoma): > 100 µM

CC(C)CC(Nc1c(O)ccc2ccccc12)C(=O)O (stereo not given)
TGI (ACHN renal): 76 µM
TGI (CCRF-CEM leukemia): > 100 µM
TGI (COLO 205 colon): > 100 µM
TGI (DU-145 prostate): > 100 µM
TGI (NCI-H226 lung): 62.1 µM
TGI (OVCAR-4 ovarian): > 100 µM
TGI (SF-539 CNS): 47.6 µM
TGI (SK-OV-3 ovarian): 66.3 µM
TGI (UACC-257 melanoma): 50.3 µM

Cc1ccc(-c2cc(=O)c3cc(C)c(C)c(C(=O)O)c3o2)cc1N
TGI (ACHN renal): > 100 µM
TGI (CCRF-CEM leukemia): > 100 µM
TGI (COLO 205 colon): > 100 µM
TGI (NCI-H226 lung): > 100 µM
TGI (OVCAR-4 ovarian): > 100 µM
TGI (SF-539 CNS): > 100 µM
TGI (SK-OV-3 ovarian): > 100 µM
TGI (UACC-257 melanoma): > 100 µM

O=C(O)CCc1c2ccc(=O)c(O)c-2oc2c(O)c(O)ccc12
TGI (ACHN renal): > 100 µM
TGI (CCRF-CEM leukemia): 13.8 µM
TGI (COLO 205 colon): > 100 µM
TGI (DU-145 prostate): > 100 µM
TGI (OVCAR-4 ovarian): > 100 µM
TGI (PC-3 prostate): > 100 µM
TGI (SK-OV-3 ovarian): > 100 µM
TGI (UACC-257 melanoma): > 100 µM

COC(=O)N/N=C(/CCC(=O)Nc1ccc(C)c(C)c1)CC(=O)C(C)(C)C
TGI (ACHN renal): > 100 µM
TGI (CCRF-CEM leukemia): > 100 µM
TGI (COLO 205 colon): > 100 µM
TGI (NCI-H226 lung): > 100 µM
TGI (OVCAR-4 ovarian): > 100 µM
TGI (SF-539 CNS): > 100 µM
TGI (SK-OV-3 ovarian): > 100 µM
TGI (UACC-257 melanoma): > 100 µM

C#CC1(O)c2ccccc2C(=O)c2ccccc21
TGI (ACHN renal): > 100 µM
TGI (CCRF-CEM leukemia): > 100 µM
TGI (COLO 205 colon): > 100 µM
TGI (NCI-H226 lung): > 100 µM
TGI (OVCAR-4 ovarian): > 100 µM
TGI (SF-539 CNS): > 100 µM
TGI (UACC-257 melanoma): > 100 µM

Clc1ccc2nc(-c3ccccc3)nc(Cl)c2c1
TGI (ACHN renal): 76.9 µM
TGI (CCRF-CEM leukemia): > 100 µM
TGI (COLO 205 colon): > 100 µM
TGI (NCI-H226 lung): > 100 µM
TGI (SF-539 CNS): > 100 µM
TGI (SK-OV-3 ovarian): 36.8 µM
TGI (UACC-257 melanoma): > 100 µM
